Patent US20090075272A1, “Method to Identify CD40-Sensitive Cells Using Gene Expression” (priority 2007, published 2009)
Entries after “also recorded” stand apart in the source; their conditions may differ.

Tests used:
OCI-Ly7 cells [1] = experiment: Inhibition of CD40-mediated apoptosis by kinase inhibitors (viable cell count); format: cell-based, human; settings: 96 hours CD40 stimulation, U0126 10 μM, PD98059 50 μM, SB203580 10 μM added 30 minutes prior
Method: (§1) FIG. 10 is a bar graph showing the effect of ERK inhibition on CD40-mediated apoptosis. Cells were subjected to CD40 stimulation for 96 hours in the presence of the MEK1/2 inhibitors U0126 (10 μM) or PD98059 (50 μM), or the p38 inhibitor SB203580 (10 μM). Cell viability was quantitated by staining nonpermeabilized cells with propidium iodide, and counting the number of unstained (live) cells per unit volume using a Becton-Dickinson FACScan flow cytometer set to count for 30 seconds. The number of viable cells in anti-CD40-treated samples was expressed as a percentage of the number of viable cells incubated in secondary antibody only. Results from three experiments of four replicates each are shown. Error bars represent standard deviations. […] Constitutive ERK phosphorylation is correlated with CD40-mediated cell death.
(§2) Cells were resuspended at 1×10^5 cells/mL in RPMI 1640 medium supplemented as described above. Anti-CD40 antibody G28.5 and secondary crosslinking antibody HB58 were added to a final concentration of 10 μg/mL each, and the cells were incubated at 37° C. At 24 hour intervals aliquots of cells were harvested by centrifugation, washed once in phosphate buffered saline, and resuspended in FACS buffer. Non-permeabilized cells were stained by addition of 1 μg/mL propidium iodide, and the density of viable cells was determined using a FACScan flow cytometer and CellQuest software (Becton Dickinson, Mississauga, ON, Canada) set to count for a fixed 30-second time interval. To determine the fraction of cells that had undergone apoptosis, total intracellular DNA content was measured by propidium iodide staining of ethanol-permeabilized cells as previously described (16). Expression of CD40 on the cell surface was confirmed by staining non-permeabilized cells with a phycoerythrin-linked anti-CD40 antibody (clone 5C3, Becton-Dickinson) as per the manufacturer's directions, followed by flow cytometry.

Su-DHL4 cells [2] = experiment: as above; format: cell-based, human; settings: 96 hours CD40 stimulation, U0126 10 μM, PD98059 50 μM, SB203580 10 μM added 30 minutes prior
Method: as §1, §2

[3] = tested on: CD40-sensitive and CD40-resistant DLCBL lines (OCI-Ly1, OCI-Ly7, OCI-Ly8, Su-DHL4); settings: 96 hours; inhibitor 10^−4 to 10^−8 M
Method: Sensitivity of the cell lines to inhibition of LCK and ERK activity was tested by addition of the src family kinase inhibitor PP1 or the MEK1/2 inhibitor U0126. Cells were incubated for 96 hours in inhibitor concentrations ranging from 10^−4 to 10^−8 M, and viability was assessed by MTT [3-(4,5-dimethylthiazol-2-yl)-2,5-diphenyltetrazolium bromide] assay. Viability is expressed as a percentage of the absorbance at 570 nm as compared to untreated samples. Results of two experiments with quadruplicate samples each were combined. Error bars indicate standard deviations.
The src family kinase inhibitor PP1 and the MEK inhibitor U0126 were purchased from Biomol (Plymouth Meeting, Pa., USA), and from Cell Signaling Technology (Beverly, Mass., USA) respectively. Kinase inhibition assays were performed using cells seeded at a density of 5×10^4 per mL in 96-well plates, to which kinase inhibitors were added to final concentrations of 10^−4 to 10^−8 M. The treated cells were incubated at 37° C. for 96 hours and cell viability was quantitated by MTT assay as previously described (17).

[4] = tested on: phosphorylated ERK in Su-DHL4 cells; settings: 10 μM, 48 hours
Method: Cells were permeabilized in Cytofix/Cytoperm (Becton-Dickinson) for 20 minutes, and stained with anti-phospho-ERK antibody (Cell Signaling Technology #9101) and FITC-conjugated anti-rabbit secondary antibody (Cedarlane Laboratories, Hornby, ON, CA) following the manufacturers' instructions. The stained cells were analyzed by flow cytometry with a FACScan flow cytometer and CellQuest software.
This hypothesis was tested using pharmacologic inhibitors of MEK. Su-DHL4 cells were incubated in the presence of 10 μM U0126 for 48 hours, permeabilized and stained with an anti-phospho-ERK antibody.

OCI-Ly7 cells [5] = experiment: Growth inhibition by kinase inhibitors (MTT assay); format: cell-based, human; settings: 96 hours; inhibitor 10^−4 to 10^−8 M
Text: (§3) Error bars indicate standard deviations.

Su-DHL4 cells [6] = experiment: Growth inhibition by kinase inhibitors (MTT assay); format: cell-based, human; settings: 96 hours; inhibitor 10^−4 to 10^−8 M
Text: as §3

Su-DHL4 cells [7] = experiment: Cell death after treatment with calcium ionophore; format: cell-based, human

N#CC(=C(/N)Sc1ccccc1N)/C(C#N)=C(\N)Sc1ccccc1N [U0126]
CD40-mediated cell death (viable cells in anti-CD40-treated samples vs secondary antibody only) (OCI-Ly7 cells [1]): prevented CD40-mediated reduction in viability; also recorded: reduced CD40-mediated cell death | CD40-mediated cell death (viable cells in anti-CD40-treated samples vs secondary antibody only) (Su-DHL4 cells [2]): prevented CD40-mediated reduction in viability; also recorded: reduced CD40-mediated cell death | differential effects on growth of CD40-sensitive and CD40-resistant DLCBL lines [3]: did not show differential effects | phosphorylation of ERK [4]: reduced

C[S+]([O-])c1ccc(-c2nc(-c3ccncc3)c(-c3ccc(F)cc3)[nH]2)cc1 (stereo not shown) [SB203580]
CD40-mediated cell death (viable cells in anti-CD40-treated samples vs secondary antibody only) (OCI-Ly7 cells [1]): reduced by CD40 ligation | CD40-mediated cell death (viable cells in anti-CD40-treated samples vs secondary antibody only) (Su-DHL4 cells [2]): reduced by CD40 ligation

Cc1ccc(-c2nn(C(C)(C)C)c3ncnc(N)c23)cc1 [PP1]
growth (viability by MTT assay) (OCI-Ly7 cells [5]): more effective at reducing proliferation; also recorded: inhibited by PP1 more efficiently than growth of CD40-resistant OCI-Ly1 and OCI-Ly8 cells | growth (viability by MTT assay) (Su-DHL4 cells [6]): more effective at reducing proliferation; also recorded: inhibited by PP1 more efficiently than growth of CD40-resistant OCI-Ly1 and OCI-Ly8 cells

COc1cccc(-c2cc(=O)c3ccccc3o2)c1N [PD98059]
CD40-mediated cell death (viable cells in anti-CD40-treated samples vs secondary antibody only) (OCI-Ly7 cells [1]): prevented CD40-mediated reduction in viability | CD40-mediated cell death (viable cells in anti-CD40-treated samples vs secondary antibody only) (OCI-Ly7 cells [1]; listed as PD98058): reduced CD40-mediated cell death | CD40-mediated cell death (viable cells in anti-CD40-treated samples vs secondary antibody only) (Su-DHL4 cells [2]): prevented CD40-mediated reduction in viability | CD40-mediated cell death (viable cells in anti-CD40-treated samples vs secondary antibody only) (Su-DHL4 cells [2]; listed as PD98058): reduced CD40-mediated cell death

C[C@H](CCC(=O)O)C[C@H](C)C[C@H](C)C(=O)/C=C(\O)[C@H](C)C[C@H](C)C/C=C/[C@@H](C)[C@@H](O)[C@@H](C)[C@@H](O)C[C@@H]1CC[C@@](C)([C@H]2CC[C@@](C)([C@@H](C)O)O2)O1 [ionomycin]
cell death (Su-DHL4 cells [7]): induced cell death
